For assay [1], the target named is T1, Ba/F3 cell lines stably expressing human FLT3-ITD-D835Y (Homo sapiens, UniProt P36888, D835Y, cells depend on it, form not given).
T1 construct: Ba/F3-FLT3-ITD-D835Y Relative IC50
T1 sequence (P36888 1-993 D835Y): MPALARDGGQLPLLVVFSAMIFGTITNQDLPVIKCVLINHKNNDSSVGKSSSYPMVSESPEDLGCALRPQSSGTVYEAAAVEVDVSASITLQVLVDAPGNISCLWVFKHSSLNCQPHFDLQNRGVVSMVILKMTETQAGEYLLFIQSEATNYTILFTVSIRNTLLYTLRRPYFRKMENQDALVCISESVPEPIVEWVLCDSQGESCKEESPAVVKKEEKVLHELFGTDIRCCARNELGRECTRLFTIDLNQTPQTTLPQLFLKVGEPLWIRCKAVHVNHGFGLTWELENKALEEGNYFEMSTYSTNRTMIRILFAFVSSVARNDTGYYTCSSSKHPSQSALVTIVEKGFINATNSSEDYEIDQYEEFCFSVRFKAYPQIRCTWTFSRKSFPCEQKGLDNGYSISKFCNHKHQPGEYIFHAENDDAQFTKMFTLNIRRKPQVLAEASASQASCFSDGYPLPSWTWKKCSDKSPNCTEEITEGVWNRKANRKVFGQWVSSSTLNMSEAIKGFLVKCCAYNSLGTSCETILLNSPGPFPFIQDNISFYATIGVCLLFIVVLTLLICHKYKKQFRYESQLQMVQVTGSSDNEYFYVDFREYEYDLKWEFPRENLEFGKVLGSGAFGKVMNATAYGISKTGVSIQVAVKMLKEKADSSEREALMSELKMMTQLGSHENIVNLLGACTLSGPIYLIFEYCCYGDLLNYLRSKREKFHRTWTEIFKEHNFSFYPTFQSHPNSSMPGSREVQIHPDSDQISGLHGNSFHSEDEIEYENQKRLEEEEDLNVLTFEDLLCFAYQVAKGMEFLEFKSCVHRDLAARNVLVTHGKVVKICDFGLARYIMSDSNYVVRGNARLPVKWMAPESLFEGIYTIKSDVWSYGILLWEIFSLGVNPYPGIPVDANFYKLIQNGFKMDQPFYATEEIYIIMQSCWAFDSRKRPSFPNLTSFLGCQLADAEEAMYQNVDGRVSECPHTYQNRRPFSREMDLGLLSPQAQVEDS
As to the kind of experiment: FLT3 mutant assay, cell viability, Ba/F3-FLT3-ITD-D835Y. It counts as cell-based, mouse. The conditions noted are these: IC50 (3 days), CellTiter-Glo; read-out: Ba/F3-FLT3-ITD-D835Y Relative IC50. The protocol:
(§1) Activity of compounds on FLT3 activating mutations were assessed using Ba/F3 cell lines (mouse pro-B cell line) stably expressing human FLT3-ITD, FLT3-ITD-D835Y or FLT3-ITD-F691L. […] The supernatant collected were concentrated with PEG8000 and used to infect Ba/F3 cells at 1-5 MOI in serum-free media with polybrene. Infected Ba/F3 cells were selected in presence of puromycin, and surviving cells verified by sequencing and/or protein detection assay. Constitutive expression of the activating kinase transforms the Ba/F3 cells into IL-3-independent growth allowing them to be cultured in the absence of IL-3. […] For use in compound testing, cells in exponential growth phase were harvested, counted, and resuspended at the required cell density. Cell viability assays were performed in 96-well assay plates and 90 μL of cell suspension seeded per well. Serial dilutions of the test compounds and assay controls and were freshly prepared for the assay. Nine-point 3× serial dilutions were prepared in 100% DMSO (400× stock) and subsequently diluted in cell culture media to obtain 10× stocks. Ten microliters of the 10× stock serial dilutions were added to the appropriate wells (triplicate wells per condition) in the assay plate. […] Assay plates were incubated for 3 days in at 37° C. in a humidified incubator with 5% CO2.
(§2) Inhibition rate (IR) of the tested compounds was determined by the following formula: IR (%)=(1−(RLU compound−RLU blank)/(RLU control−RLU blank))*100%. The inhibitions of different dose of compound were calculated in Excel file, and the dose responses were analysed using GraphPad Prism to evaluate related parameters, such as Bottom, Top and IC50. For the IC50 analysis by GraphPad Prism, the equation below was used to fit curve: Y=Bottom+(Top−Bottom)/(1+10^((LogIC50−X)*HillSlope))
For orientation: In ATP-based viability assays light output follows the ATP content of the culture.

The target of assay [2] is T2, Ba/F3 cell lines stably expressing human FLT3-ITD (Homo sapiens, UniProt P36888, cells depend on it, form not given).
T2 sequence (P36888 1-993): T1 sequence (P36888 1-993 D835Y) with Y835D
The experiment in a line: FLT3 mutant assay, cell viability, Ba/F3-FLT3-ITD. It counts as cell-based, mouse. As to conditions: IC50 (3 days), CellTiter-Glo; read-out: Ba/F3-FLT3-ITD Relative IC50. The protocol: as §1, §2

Molecules are shown by their SMILES. Changes are numbered by the printed parent chain.

Consider `CCc1nc(C(N)=O)c(Nc2cccc(CCNC(=O)[C@H](C)N(C)C(=O)/C=C/CN(C)C)c2)nc1NC(C)C` [Compound 205, (S,E)-3-((3-(2-(2-(4-(dimethylamino)-N-methylbut-2-enamido)propanamido)ethyl)phenyl)amino)-6-ethyl-5-(isopropylamino)pyrazine-2-carboxamide], for which the GI50 in assay [1] was 1 to 10 nM; in assay [2], less than 1 nM.

On to `CCc1nc(C(N)=O)c(Nc2cccc(CCNC(=O)[C@H](C)N(C)C(=O)/C=C/CN(C)C)c2)nc1N(C)C(C)C` [Compound 204, (S,E)-3-((3-(2-(2-(4-(dimethylamino)-N-methylbut-2-enamido)propanamido)ethyl)phenyl)amino)-6-ethyl-5-(isopropyl(methyl)amino)pyrazine-2-carboxamide], for which the GI50 in assay [1] and in assay [2] was 1 to 10 nM each time.

Take `CCc1nc(C(N)=O)c(Nc2cccc([C@@H](C)CNC(=O)CN(C)C(=O)/C=C/CN3CCC3)c2)nc1N(C)CC` [Compound 518, (R,E)-3-((3-(1-(2-(4-(azetidin-1-yl)-N-methylbut-2-enamido)acetamido)propan-2-yl)phenyl)amino)-6-ethyl-5-(ethyl(methyl)amino)pyrazine-2-carboxamide]: the GI50 fell in the range of 10 to 100 nM in assay [1] and 1 to 10 nM in assay [2].

As to `Cc1nc(C(N)=O)c(Nc2cccc(CCNC(=O)CN(C)C(=O)/C=C/CN(C)C)c2)nc1N(C)C(C)C` [Compound 250, (E)-3-((3-(2-(2-(4-(dimethylamino)-N-methylbut-2-enamido)acetamido)ethyl)phenyl)amino)-5-(isopropyl(methyl)amino)-6-methylpyrazine-2-carboxamide], the GI50 is 10 to 100 nM in assay [1] and 1 to 10 nM in assay [2].

Regarding `CCc1nc(C(N)=O)c(Nc2ccnc(CCNC(=O)[C@H](C)N(C)C(=O)/C=C/CN(C)C)c2)nc1N(C)C(C)C` [Compound 605, (S, E)-3-((2-(2-(2-(4-(dimethylamino)-N-methylbut-2-enamido)propanamido)ethyl)pyridin-4-yl)amino)-6-ethyl-5-(isopropyl (methyl)amino) pyrazine-2-carboxamide], the figures for the GI50 in assay [1] and in assay [2] were 10 to 100 nM and 1 to 10 nM, respectively.

For the origin of these results see patent publication US20240262795A1, “PYRAZINE COMPOUNDS AS INHIBITORS OF FLT3” (Biomea Fusion, Inc., priority 2021, published 2024).
